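Compound exposure: 48 hours, 5 concentrations, 96-well plates. GI50: concentration for 50% inhibition of growth.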 The source made the active and inactive calls. Cut-off read from the data, not from the text of the source: active = GI50 up to about 1.1 µM and inactive = higher.
Assays:
Assay in all cases: NCI-60 cell line screen, 48 h
DLD-1 = system: DLD-1
HOP-18 = system: HOP-18
LXFL 529 = system: LXFL 529
M19-MEL = system: M19-MEL
RXF 631 = system: RXF 631
SNB-78 = system: SNB-78
KM-20L2 = system: KM-20L2
MDA-MB-231 = system: MDA-MB-231
XF498 = system: XF498

Measured: GI50

CCOc1ccccc1NC(=O)CCc1nnc(S)[nH]1
inactive: DLD-1 > 100 µM | HOP-18 > 100 µM | LXFL 529 > 100 µM | M19-MEL > 100 µM | RXF 631 > 100 µM | SNB-78 > 100 µM

Nc1ccc(-c2nc3ccccc3s2)cc1
inactive: DLD-1 26.4 µM | HOP-18 86.9 µM | KM-20L2 37.8 µM | LXFL 529 17.5 µM | M19-MEL 30.8 µM | MDA-MB-231 17.9 µM | RXF 631 19.7 µM | SNB-78 21.6 µM

CC(=O)c1ccc(OCC(O)CO)cc1 (centres undefined)
inactive: DLD-1 45.8 µM | HOP-18 > 100 µM | KM-20L2 > 100 µM | LXFL 529 51.8 µM | M19-MEL > 100 µM | RXF 631 > 100 µM | SNB-78 > 100 µM

O=C(Nc1cccc(O)c1)C(=O)C1C(=O)NC(=S)NC1=O
inactive: DLD-1 > 100 µM | HOP-18 > 100 µM | KM-20L2 > 100 µM | LXFL 529 > 100 µM | M19-MEL > 100 µM | SNB-78 > 100 µM | XF498 > 100 µM

NS(=O)(=O)c1ccc(NC(=O)C2C(=O)C(=O)N(c3ccc(S(N)(=O)=O)cc3)C2=O)cc1 (centres undefined)
inactive: DLD-1 > 100 µM | HOP-18 > 100 µM | KM-20L2 > 100 µM | LXFL 529 > 100 µM | M19-MEL > 100 µM | RXF 631 > 100 µM | SNB-78 > 100 µM

CCOC(=O)[N-]c1ccc(S(=O)(=O)[O+](C)CCl)cc1.CCOC(=O)[N-]c1ccc(S(=O)(=O)[O+](C)CCl)cc1.NC(=O)N=O.NC(=O)OCCCl
inactive: HOP-18 > 100 µM | KM-20L2 > 100 µM | LXFL 529 > 100 µM | M19-MEL > 100 µM | RXF 631 > 100 µM | SNB-78 > 100 µM | XF498 > 100 µM

Nc1ccc(N)c2c1C(=O)c1ccccc1C2=O
inactive: DLD-1 5.83 µM | HOP-18 22 µM | KM-20L2 14.4 µM | LXFL 529 31.1 µM | M19-MEL 95.5 µM | RXF 631 20.4 µM | SNB-78 > 100 µM | XF498 > 100 µM

CC1=C(C(=O)NCc2ccccc2)C(c2ccc(N(C)C)cc2)C(C(=O)NCc2ccccc2)=C(C)N1
inactive: DLD-1 > 100 µM | KM-20L2 > 100 µM | LXFL 529 > 100 µM | M19-MEL > 100 µM | RXF 631 > 100 µM | SNB-78 > 100 µM | XF498 > 100 µM

O=C(CC1(O)C(=O)Nc2ccccc21)c1ccc2ccccc2c1 (centres undefined)
inactive: DLD-1 > 100 µM | KM-20L2 > 100 µM | LXFL 529 > 100 µM | M19-MEL > 100 µM | RXF 631 > 100 µM | SNB-78 > 100 µM | XF498 93.8 µM

O=C1c2ccccc2C2(O)NC(=S)N(c3ccccc3)C12O (centres undefined)
inactive: DLD-1 > 100 µM | HOP-18 > 100 µM | KM-20L2 > 100 µM | LXFL 529 > 100 µM | M19-MEL > 100 µM | SNB-78 > 100 µM | XF498 > 100 µM

Cc1cc(O)c(C(=O)CC2(O)C(=O)Nc3c(Cl)cc(Cl)cc32)c(=O)o1 (centres undefined)
inactive: DLD-1 > 100 µM | HOP-18 > 100 µM | KM-20L2 > 100 µM | LXFL 529 > 100 µM | M19-MEL 46.8 µM | RXF 631 > 100 µM | SNB-78 > 100 µM | XF498 > 100 µM

CC(=O)Nc1ccc(/C=C(\NC(=O)c2ccccc2)C(=O)NNS(=O)(=O)c2ccc(C)cc2)cc1
inactive: DLD-1 33 µM | HOP-18 > 100 µM | KM-20L2 > 100 µM | LXFL 529 > 100 µM | M19-MEL > 100 µM | SNB-78 > 100 µM | XF498 > 100 µM

COC(=O)[C@]1(c2ccc(N(C)C)cc2OC)C[C@@H]2CCCN(CCc3c1[nH]c1ccccc31)C2
inactive: DLD-1 27.2 µM | HOP-18 24.1 µM | KM-20L2 17.1 µM | M19-MEL 16.4 µM | SNB-78 31 µM | XF498 18.7 µM

COC(=O)CC(=O)OSc1ccccc1
inactive: DLD-1 17.2 µM | KM-20L2 20 µM | RXF 631 11.4 µM

Nc1ncnc2c1ncn2C1C=C(CO)C(O)C1O (centres undefined)
inactive: DLD-1 5.6 µM | HOP-18 24.3 µM | KM-20L2 14.7 µM | LXFL 529 16.7 µM | M19-MEL 40.9 µM | MDA-MB-231 2.19 µM | RXF 631 12.6 µM | SNB-78 30.9 µM | XF498 37.2 µM

Reference: ChEMBL document CHEMBL1201862, “PubChem BioAssay data set” (2004)
